Here are results for six compounds from US7647217B2, “Structure of the farnesoid X receptor ligand binding domain and methods of use therefor” (The Salk Institute for Biological Studies, priority 2002, dated 2010).

The structures appear in SMILES notation.

One assay deals with T1, mouse FXR (Mus musculus, UniProt Q60641).
T1 construct: expressed in transfected cells; host or cells: CV-1 (monkey)
T1 sequence (Q60641 1-488): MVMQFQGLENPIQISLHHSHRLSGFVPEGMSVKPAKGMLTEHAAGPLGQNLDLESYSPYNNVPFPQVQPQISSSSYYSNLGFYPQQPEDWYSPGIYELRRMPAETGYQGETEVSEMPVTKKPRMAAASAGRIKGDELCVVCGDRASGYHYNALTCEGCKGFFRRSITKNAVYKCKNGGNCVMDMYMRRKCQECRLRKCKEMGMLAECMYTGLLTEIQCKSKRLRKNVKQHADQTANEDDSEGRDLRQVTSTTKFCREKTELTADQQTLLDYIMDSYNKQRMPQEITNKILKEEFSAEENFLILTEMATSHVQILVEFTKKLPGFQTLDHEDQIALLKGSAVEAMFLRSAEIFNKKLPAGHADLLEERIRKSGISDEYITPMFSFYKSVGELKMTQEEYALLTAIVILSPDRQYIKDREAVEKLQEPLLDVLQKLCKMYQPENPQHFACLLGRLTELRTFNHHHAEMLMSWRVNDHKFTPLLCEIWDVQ
T1 sequence (P19793 1-462 partner): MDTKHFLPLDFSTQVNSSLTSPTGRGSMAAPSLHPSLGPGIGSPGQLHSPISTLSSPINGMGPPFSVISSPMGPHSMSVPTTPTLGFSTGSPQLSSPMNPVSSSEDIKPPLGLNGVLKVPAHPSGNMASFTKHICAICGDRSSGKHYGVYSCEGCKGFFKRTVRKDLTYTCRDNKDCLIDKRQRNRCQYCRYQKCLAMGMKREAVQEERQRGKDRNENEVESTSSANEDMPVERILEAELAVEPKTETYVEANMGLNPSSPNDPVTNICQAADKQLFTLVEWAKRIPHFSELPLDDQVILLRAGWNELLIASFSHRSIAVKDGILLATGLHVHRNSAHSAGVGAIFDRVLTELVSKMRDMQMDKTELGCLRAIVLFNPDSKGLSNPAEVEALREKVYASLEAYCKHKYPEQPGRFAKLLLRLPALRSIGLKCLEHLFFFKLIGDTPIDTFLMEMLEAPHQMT
As to the kind of experiment: CV-1 reporter gene assay, mFXR/hRXR with TK minimal, TK-ECRE*6 or TK-ER8*2 luciferase reporter. It is filed as cell-based. As to conditions: for activation of ECRE FXRE reporter: CV-1, TK-ECRE*6; for activation of ER-8 FXRE reporter: CV-1, TK-ER8*2; for concentration at which maximal activity is achieved / activity on FXRE reporters: ECRE and ER-8 reporters. The protocol: FIGS. 2A-2F collectively show the results of ligand activation of CV-1 cells co-transfected with FXR constructs pCMX-mFXR and pCMX-hRXR and a luciferase reporter gene containing various promoters as follows: FIG. 2A with a minimal TK promoter, FIG. 2B with a TK-ECRE*6 promoter, FIG. 2C with a TK-ER8*2 promoter, FIG. 2D with HIBABP promoter, FIG. 2E with a hPLTP promoter, or FIG. 2 with a FhMRP-2 promoter.
For transfection of these constructs, monkey CV-1 HEPG2 and HEK293T cells were grown in DMEM supplemented with 10% FBS, 50 U/ml penicillin G, and 50 μg/ml streptomycin sulfate at 37° C. in 7% CO2. CV-1 cells (60%-70% confluence, 48-well plate) were cotransfected with 16.6 ng of the appropriate expression vector, 100 ng of reporter plasmid, and 100 ng of pCMX-LacZ in 200 μl of DMEM containing 10% FBS by the N-[1-(2,3-dioleoyloxy)propyl]-N,N,N-trimethylammonium methylsulfate (DOTAP)-mediated procedure. After 24 hr, the medium was replaced, and cells were harvested and assayed for luciferase activity 36-48 hr after transfection. The luciferase activity was normalized to the level of β-galactosidase activity. Each transfection was performed in triplicate and repeated at least three times.
The ability of these compounds to activate the receptor in a number of different cell-based reporter gene assays was then determined. […] CV-1 cells were transiently transfected with an expression plasmid for mouse FXR and human RXR with a thymidine kinase (minimal promoter reporter vector containing either no copies or six copies of the ecdysone response element (ECRE), a well-characterized FXR response element (FXRE). In addition, two copies of the recently identified FXRE everted repeat separated by 8 nucleotides (ER-8) was also studied (see, for example, Laffitte et al. (2000). Identification of the DNA binding specificity and potential target genes for the farnesoid X-activated receptor. J Biol. Chem. 275(14), 10638-47; Kast et al. (2002). Regulation of multidrug resistance-associated protein 2 (ABCC2) by the nuclear receptors pregnane X receptor, farnesoid X-activated receptor, and constitutive androstane receptor. J Biol Chem. 277(4), 2908-15).
Similar results were found in a variety of different cell types including liver cells (HEPG2) and kidney cells (HEK 293).
Background: Reporter assays use an easily measured gene product as a stand-in for the process of interest.

The subject of another assay is hPPARαγδ. As to the kind of experiment: GAL4 chimeric NHR cross-reactivity assay. Format: cell-based, human. As to conditions: 10 μM. The protocol:
FIGS. 3A-3E collectively show the results of ligand activation of CV-1 cells co-transfected with a luciferase reporter gene with a variety of receptor expression constructs. […] FIGS. 3C-3E show the results of CV-1 cells transiently transfected with the indicated reporter constructs, treated with either DMSO or 10 μM of the compounds fexaramine (3C), fexarine (3D), fexarene (3E). Reporter activity was normalized to the internal control and the data plotted as fold activation relative to untreated cells. All transfections contained CMX-βgal as an internal control.
The expression plasmids pCMX, pCMX-LacZ, pCMX-mFXRFL, pCMX-hRXRFL, pCMX-GALDBD-rFXRLBD and other pCUX-GALDBD-NR LBDs (hRXRα, hPPARαγδ, mPXR, hPXR, hLXRα, HTRβ, hRARβ, mCAR, mERR3 and hVDR) have been described elsewhere (Blumberg et al. (1998). SXR, a novel steroid and xenobiotic-sensing nuclear receptor. Genes Dev. 12(20), 3195-205). The reporter plasmids pMH2004-TK-luc, pTKECRE*6-luc, pTKER-8*2-luc and pMRP-2-luc also have been described elsewhere. The hPLTP-luc promoter was kindly provided by Dr Dennis Dowhan and the hIBABP-luc promoter was created from a plasmid provided by Dr Philippe Besnard.
Cell-based transcriptional activation assays using chimeric nuclear hormone receptor (NHR) constructs were established to measure the selectivity of the compounds to FXR relative to other NHRs (Forman et al. (1995). Identification of a nuclear receptor that is activated by farnesol metabolites. Cell 81, 687-693). These assays used fusion proteins with the yeast GAL4 DNA binding domain connected to the ligand-binding domain (LBD) of NHRs. These constructs were co-transfected with a thymidine kinase C minimal promoter reporter vector containing four copies of the GAL4 binding site. Titration experiments were then performed using the identified compounds. […] Addition of RXR had no effect on the activation potential of fexaramine, fexarine, fexarene in this assay.
No activity was observed on other chimeric NHR constructs including hRXRα, hPPARαγδ, mPXR, hPXR, hLXRα, hTRβ, hRARβ, mCAR, mERR3 and hVDR (see FIGS. 3C-3E).

With `COC(=O)/C=C/c1cccc(N(Cc2ccc(-c3ccc(N(C)C)cc3)cc2)C(=O)C2CCCCC2)c1` [fexaramine], on mouse FXR, the “activation of ECRE FXRE reporter” value stood at 100 fold, the “activation of ER-8 FXRE reporter” value amounted to 4 fold and the “concentration at which maximal activity is achieved” value (shortened to “concentration”) is 1 µM. Besides, the “activity on chimeric hPPARαγδ constructs” value in the assay with hPPARαγδ is reported as “No activity”.

Consider `COC(=O)/C=C/c1cccc(N(Cc2ccc(/C=C/c3ccccc3)cc2)C(=O)C2CCCCC2)c1` [fexarene], for which, at mouse FXR, the “activation of ECRE FXRE reporter” value is reported as 100 fold, the “activation of ER-8 FXRE reporter” value came to 4 fold and the “concentration” value is 1 µM. In addition, the “activity on chimeric hPPARαγδ constructs” value with hPPARαγδ is recorded as “No activity”.

As for `COC(=O)/C=C/c1cccc(N(Cc2ccc(-c3ccc4c(c3)OCO4)cc2)C(=O)C2CCCCC2)c1` [fexarine], on mouse FXR, the “activation of ECRE FXRE reporter” value is given as 100 fold, the “activation of ER-8 FXRE reporter” value was determined as 4 fold and the “concentration” value was 1 µM. Besides, the “activity on chimeric hPPARαγδ constructs” value in the assay on hPPARαγδ is recorded as “No activity”.

Regarding `COC(=O)/C=C/c1cccc(N(Cc2ccc(-c3ccccc3OC)cc2)C(=O)C(C)C)c1` [SRI-1], the “activity on FXRE reporters” value on mouse FXR was “little or no activity”.

On to `CC(C)c1onc(-c2c(Cl)cccc2Cl)c1COc1ccc(/C=C/c2cccc(C(=O)O)c2)c(Cl)c1` [GW4064, reference compound], for which, on mouse FXR, the “activation of ECRE FXRE reporter” value amounted to 100 fold, the “activation of ER-8 FXRE reporter” value was found to be 4 fold and the “concentration” value came to 1 µM. Also, on mouse FXR (reporter without FXRE), the “activity on minimal TK promoter” value is “less than 2 fold”.

In the case of `COC(=O)/C=C/c1cccc(N(Cc2ccc(-c3ccc(C(C)(C)C)cc3)cc2)C(=O)C(C)C)c1` [SRI-2], at mouse FXR, the “activity on FXRE reporters” value is given as “little or no activity”.
